SMILES strings stand for the structures.

For the assay, the system named is AGS cells (KRAS^G12D). In words: Detection of cell proliferation in vitro by MTT/MTS method (cell activity experiment). The settings on record: Homo sapiens, AGS, 72 h, AGS cells; MTT/MTS; 3 days of drug treatment; read-out: AGS IC50. The class given is cell-based. The procedure, abridged: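 After 3-day compound exposure (final DMSO 0.5%), viability of AGS (KRAS G12D) cells, plated 1000/well one day before dosing, was measured at 490 nm following 4 h MTT or MTS incubation. IC50 was fitted from dose–effect curves relative to DMSO-treated wells.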
In general terms: Formazan colour is commonly taken as a measure of viable cells.
In the case of `C#Cc1c(F)ccc2cc(O)cc(-c3ccc4c(N5C[C@H]6CC[C@@H](C5)N6)nc(OC[C@@]56CCCN5C[C@H](F)C6)nc4n3)c12` [Example 140, 4-(4-((1R,5S)-3,8-diazabicyclo[3.2.1]octan-3-yl)-2-(((2R, 7aS)-2-fluorotetrahydro-1H-pyrrolizin-7a(5H)-yl)methoxy)pyrido[2,3-d]pyrimidin-7-yl)-5-ethynyl-6-fluoronaphthalen-2-ol], the IC50 was more than 2500 nM.
With `[O-][S+]1C2CCC1CN(c1nc(OC[C@@]34CCCN3C[C@H](F)C4)nc3c(F)c(-c4cc(O)cc5ccc(F)c(F)c45)ccc13)C2` (stereo partly drawn) [Example 165, (1R,5S,8R)-3-(7-(7,8-difluoro-3-hydroxynaphthalen-1-yl)-8-fluoro-2-(((2R,7aS)-2-fluorotetrahydro-1H-pyrrolizin-7a(5H)-yl)methoxy)quinazolin-4-yl)-8-thia-3-azabicyclo[3.2.1]octane 8-oxide], the concentration for half-maximal inhibition (IC50) is more than 2500 nM.
Regarding `C#Cc1c(F)ccc2cc(O)cc(-c3ccc4c(N5C[C@H]6CC[C@@H](C5)C6(F)F)nc(OC[C@@]56CCCN5C[C@H](F)C6)nc4c3F)c12` [Example 119, 4-(4-((1R,5S)-8,8-difluoro-3-azabicyclo [3.2.1]octan-3-yl)-8-fluoro-2-(((2R,7aS)-2-fluorotetrahydro-1H-pyrrolizin-7a(5H)-yl)methoxy)quinazolin-7-yl)-5-ethynyl-6-fluoronaphthalen-2-ol], the IC50 was more than 2500 nM.
On to `C#Cc1c(F)ccc2cc(O)cc(-c3ncc4c(C56CCN(CC5)CC6)nc(OC[C@@]56CCCN5C[C@H](F)C6)nc4c3F)c12` [Example 71, 5-ethynyl-6-fluoro-4-(8-fluoro-2-(((2R, 7aS)-2-fluorotetrahydro-1H-pyrrolizin-7a(5H)-yl)methoxy)-4-(quinuclidin-4-yl)pyrido[4,3-d]pyrimidin-7-yl) naphthalen-2-ol], for which the IC50 was more than 2500 nM.
For `Oc1cc2c(c(-c3ncc4c(N5C[C@H]6CC[C@@H](C5)N6)nc(OC[C@@]56CCCN5C[C@H](F)C6)nc4c3F)c1)C1CC1CC2` (stereo partly drawn) [Example 246, 7-(4-((1R,5S)-3,8-diazabicyclo[3.2.1]octan-3-yl)-8-fluoro-2-(((2R,7aS)-2-fluorotetrahydro-1H-pyrrolizin-7a(5H)-yl)methoxy)pyrido[4,3-d]pyrimidin-7-yl)-1a,2,3,7b-tetrahydro-1H-cyclopropa[a]naphthalen-5-ol] the value was 109 nM; for `C#Cc1c(F)ccc2cc(O)cc(-c3ccc4c(N5C[C@H]6CC[C@@H](C5)N6)c(C(F)(F)F)c(OC[C@@]56CCCN5C[C@H](F)C6)nc4c3)c12` [Example 183, 4-(4-((1R,5S)-3,8-diazabicyclo[3.2.1]octan-3-yl)-2-(((2R,7aS)-2-fluorotetrahydro-1H-pyrrolizin-7a(5H)-yl)methoxy)-3-(trifluoromethyl)quinolin-7-yl)-5-ethynyl-6-fluoronaphthalen-2-ol], more than 2500 nM.
For the molecule `C#Cc1c(F)ccc2cc(O)cc(-c3ccc4c(N5C[C@H]6CC[C@@H](C5)N6)c(C(F)(F)F)c(OC[C@@]56CCCN5C[C@H](F)C6)nc4c3F)c12` [Example 185, 4-(4-((1R,5S)-3,8-diazabicyclo[3.2.1]octan-3-yl)-8-fluoro-2-(((2R,7aS)-2-fluorotetrahydro-1H-pyrrolizin-7a(5H)-yl)methoxy)-3-(trifluoromethyl)quinolin-7-yl)-5-ethynyl-6-fluoronaphthalen-2-ol], the IC50 came out at 1350 nM.
With `CCc1c(F)ccc2cc(O)cc(-c3ncc4c(N5C[C@H]6CC[C@@H](C5)N6)nc(OCC5(CN6CCCC6)CC5)nc4c3F)c12` [Example 3, 4-(4-((1R,5S)-3,8-diazabicyclo[3.2.1]octan-3-yl)-8-fluoro-2-((1-(pyrrolidin-1-ylmethyl)cyclopropyl)methoxy)pyrido[4,3-d]pyrimidin-7-yl)-5-ethyl-6-fluoronaphthalen-2-ol], the IC50 stood at 4.5 nM.

For orientation: IC50 means the concentration that gives 50% inhibition.

Source of the values: patent US20240300980A1, “HETEROCYCLIC COMPOUNDS AS KRAS INHIBITOR, AND PREPARATION THEREFOR AND USE THEREOF IN TREATMENT” (SHANGHAI KECHOW PHARMA, INC., priority 2021, published 2024).
